Data as given in paper PMC7206119, “RIP1 inhibition blocks inflammatory diseases but not tumor growth or metastases” (Cell Death and Differentiation, 2019).

Tests used:
Experiment in all cases: biochemical
Parameters in all cases: DiscoverX kinase panel, active-site competition binding (KINOMEscan type), percent of control at one concentration
Conditions in all cases: competition binding, percent of control
AAK1 = AAK1 (Homo sapiens, UniProt Q2M2I8)
Source text: (§1) To investigate the potential therapeutic benefit of inhibiting RIP1, we developed GNE684 or (S)-N-((S)-7-methoxy-1-methyl-2-oxo-2,3,4,5-tetrahydro-1H-pyrido[3,4-b]azepin-3-yl)-5-phenyl-6,7-dihydro-5H-pyrrolo[1,2-b][1,2,4]triazole-2-carboxamide with cross-species potency against RIP1, exquisite kinase selectivity, and favorable pharmacological properties (Fig. 1a–h, S1, Tables S1 and S2, SI file 1). […] (Fig. 1b, S1, and Table S1). […] GNE684 inhibited human RIP1 potently in vitro, and mouse and rat RIP1 with slightly less potency (Fig. 1d). Accordingly, it inhibited TNF-induced necroptosis in human HT-29, mouse L929, or rat H9c2 cells (Fig. 1e). The cellular potency of GNE684 was confirmed in a human whole blood assay using TBZ (TNF, IAP antagonist BV6, and pan-caspase inhibitor zVAD) or LZ (LPS plus zVAD) to trigger necroptosis and the release of IL-1α and IL-1β (Fig. 1f).

ABL2 = ABL2 (Homo sapiens, UniProt P42684)
Source text: as §1

BRSK2 = BRSK2 (Homo sapiens, UniProt Q8IWQ3)
Source text: as §1

CLK2 = CLK2 (Homo sapiens, UniProt P49760)
Source text: as §1

CLK3 = CLK3 (Homo sapiens, UniProt P49761)
Source text: as §1

EPHA2 = EPHA2 (Homo sapiens, UniProt P29317)
Source text: as §1

ERK3 = molecular target: T1, ERK3 (Homo sapiens, UniProt Q16659)
T1 construct: gene MAPK6
Source text: as §1

HCK = HCK (Homo sapiens, UniProt P08631)
Source text: as §1

[1] = molecular target: T2, JAK3(JH1domain-catalytic) (Homo sapiens, UniProt P52333)
T2 construct: JH1domain-catalytic
Source text: as §1

KIT(L576P) = KIT(L576P) (Homo sapiens, UniProt P10721, L576P)
Source text: as §1

LRRK2(G2019S) = LRRK2(G2019S) (Homo sapiens, UniProt Q5S007, G2019S)
Source text: as §1

MET(M1250T) = MET(M1250T) (Homo sapiens, UniProt P08581, M1250T)
Source text: as §1

MET(Y1235D) = MET(Y1235D) (Homo sapiens, UniProt P08581, Y1235D)
Source text: as §1

MLK2 = molecular target: T3, MLK2 (Homo sapiens, UniProt Q02779)
T3 construct: gene MAP3K10
Source text: as §1

NEK7 = NEK7 (Homo sapiens, UniProt Q8TDX7)
Source text: as §1

PKNB(M.tuberculosis) = PKNB(M.tuberculosis) (Mycobacterium tuberculosis, UniProt P9WI81)
Source text: as §1

PRKCH = PRKCH (Homo sapiens, UniProt P24723)
Source text: as §1

PRKX = PRKX (Homo sapiens, UniProt P51817)
Source text: as §1

RET(M918T) = RET(M918T) (Homo sapiens, UniProt P07949, M918T)
Source text: as §1

SGK2 = SGK2 (Homo sapiens, UniProt Q9HBY8)
Source text: as §1

SgK110 = molecular target: T4, SgK110 (Homo sapiens, UniProt P0C264)
T4 construct: gene SBK3
Source text: as §1

Sequence of RET(M918T) (P07949 whole entry M918T): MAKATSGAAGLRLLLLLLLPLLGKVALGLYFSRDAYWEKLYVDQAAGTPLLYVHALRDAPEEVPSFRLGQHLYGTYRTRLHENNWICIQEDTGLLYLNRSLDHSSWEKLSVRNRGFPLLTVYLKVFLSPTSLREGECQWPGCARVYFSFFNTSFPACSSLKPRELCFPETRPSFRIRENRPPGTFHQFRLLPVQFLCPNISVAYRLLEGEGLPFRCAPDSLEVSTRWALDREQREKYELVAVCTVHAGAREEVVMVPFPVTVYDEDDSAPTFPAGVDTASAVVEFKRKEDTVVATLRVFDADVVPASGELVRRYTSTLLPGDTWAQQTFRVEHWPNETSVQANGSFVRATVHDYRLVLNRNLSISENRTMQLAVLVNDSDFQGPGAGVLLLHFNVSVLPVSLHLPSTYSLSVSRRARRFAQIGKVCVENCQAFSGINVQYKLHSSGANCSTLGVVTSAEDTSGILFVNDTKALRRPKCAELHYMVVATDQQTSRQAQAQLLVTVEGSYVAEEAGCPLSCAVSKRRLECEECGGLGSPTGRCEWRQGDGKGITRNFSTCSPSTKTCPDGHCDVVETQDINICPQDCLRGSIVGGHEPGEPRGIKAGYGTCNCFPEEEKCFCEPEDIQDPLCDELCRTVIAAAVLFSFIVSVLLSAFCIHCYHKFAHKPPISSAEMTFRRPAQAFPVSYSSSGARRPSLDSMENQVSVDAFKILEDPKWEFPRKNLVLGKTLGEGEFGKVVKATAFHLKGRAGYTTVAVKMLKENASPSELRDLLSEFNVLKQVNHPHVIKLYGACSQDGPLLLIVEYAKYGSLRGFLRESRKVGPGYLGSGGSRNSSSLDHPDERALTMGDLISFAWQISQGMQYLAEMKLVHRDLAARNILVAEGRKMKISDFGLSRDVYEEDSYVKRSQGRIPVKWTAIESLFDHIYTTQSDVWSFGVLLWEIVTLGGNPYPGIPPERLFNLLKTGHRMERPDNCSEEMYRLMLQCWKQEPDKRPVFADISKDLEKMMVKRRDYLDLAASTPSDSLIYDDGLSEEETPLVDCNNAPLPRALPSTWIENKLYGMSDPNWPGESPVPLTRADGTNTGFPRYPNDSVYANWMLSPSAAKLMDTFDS
Sequence of NEK7 (Q8TDX7 whole entry): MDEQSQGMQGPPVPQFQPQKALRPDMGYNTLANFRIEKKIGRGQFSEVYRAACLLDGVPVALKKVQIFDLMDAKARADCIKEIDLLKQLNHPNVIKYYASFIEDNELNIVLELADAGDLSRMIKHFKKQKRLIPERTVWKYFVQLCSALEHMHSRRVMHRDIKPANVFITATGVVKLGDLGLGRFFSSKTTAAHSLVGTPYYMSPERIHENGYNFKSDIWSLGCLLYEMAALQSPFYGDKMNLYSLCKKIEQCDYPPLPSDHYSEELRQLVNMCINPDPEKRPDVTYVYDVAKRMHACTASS
Sequence of PKNB(M.tuberculosis) (P9WI81 whole entry): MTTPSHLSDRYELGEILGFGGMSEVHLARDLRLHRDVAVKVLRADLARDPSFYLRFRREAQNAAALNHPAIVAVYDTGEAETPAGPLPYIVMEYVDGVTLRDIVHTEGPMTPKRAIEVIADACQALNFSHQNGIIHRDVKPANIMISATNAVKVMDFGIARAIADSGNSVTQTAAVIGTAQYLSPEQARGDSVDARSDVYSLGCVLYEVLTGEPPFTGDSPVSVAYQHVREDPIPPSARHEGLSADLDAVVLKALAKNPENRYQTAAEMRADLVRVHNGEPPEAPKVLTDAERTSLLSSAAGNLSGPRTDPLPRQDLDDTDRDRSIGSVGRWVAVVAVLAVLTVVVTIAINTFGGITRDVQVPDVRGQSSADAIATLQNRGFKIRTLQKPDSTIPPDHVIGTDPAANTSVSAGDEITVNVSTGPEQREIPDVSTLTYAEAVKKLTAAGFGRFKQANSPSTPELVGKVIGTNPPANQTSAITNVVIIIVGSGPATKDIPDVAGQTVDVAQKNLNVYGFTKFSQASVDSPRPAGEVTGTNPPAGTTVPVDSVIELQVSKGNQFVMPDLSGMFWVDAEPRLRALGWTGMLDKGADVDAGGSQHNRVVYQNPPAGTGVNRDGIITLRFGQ
Sequence of PRKX (P51817 whole entry): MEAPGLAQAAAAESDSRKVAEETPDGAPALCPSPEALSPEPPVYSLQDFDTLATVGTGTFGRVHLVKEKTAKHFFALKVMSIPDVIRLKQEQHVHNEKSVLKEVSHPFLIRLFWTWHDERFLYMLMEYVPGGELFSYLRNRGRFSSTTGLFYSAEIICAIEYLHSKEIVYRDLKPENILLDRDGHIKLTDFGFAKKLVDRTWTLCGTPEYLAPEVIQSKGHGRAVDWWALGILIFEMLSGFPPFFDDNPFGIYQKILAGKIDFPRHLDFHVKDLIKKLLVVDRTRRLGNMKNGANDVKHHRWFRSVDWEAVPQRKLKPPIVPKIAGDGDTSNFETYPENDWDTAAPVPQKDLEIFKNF
T2 sequence (P52333 whole entry): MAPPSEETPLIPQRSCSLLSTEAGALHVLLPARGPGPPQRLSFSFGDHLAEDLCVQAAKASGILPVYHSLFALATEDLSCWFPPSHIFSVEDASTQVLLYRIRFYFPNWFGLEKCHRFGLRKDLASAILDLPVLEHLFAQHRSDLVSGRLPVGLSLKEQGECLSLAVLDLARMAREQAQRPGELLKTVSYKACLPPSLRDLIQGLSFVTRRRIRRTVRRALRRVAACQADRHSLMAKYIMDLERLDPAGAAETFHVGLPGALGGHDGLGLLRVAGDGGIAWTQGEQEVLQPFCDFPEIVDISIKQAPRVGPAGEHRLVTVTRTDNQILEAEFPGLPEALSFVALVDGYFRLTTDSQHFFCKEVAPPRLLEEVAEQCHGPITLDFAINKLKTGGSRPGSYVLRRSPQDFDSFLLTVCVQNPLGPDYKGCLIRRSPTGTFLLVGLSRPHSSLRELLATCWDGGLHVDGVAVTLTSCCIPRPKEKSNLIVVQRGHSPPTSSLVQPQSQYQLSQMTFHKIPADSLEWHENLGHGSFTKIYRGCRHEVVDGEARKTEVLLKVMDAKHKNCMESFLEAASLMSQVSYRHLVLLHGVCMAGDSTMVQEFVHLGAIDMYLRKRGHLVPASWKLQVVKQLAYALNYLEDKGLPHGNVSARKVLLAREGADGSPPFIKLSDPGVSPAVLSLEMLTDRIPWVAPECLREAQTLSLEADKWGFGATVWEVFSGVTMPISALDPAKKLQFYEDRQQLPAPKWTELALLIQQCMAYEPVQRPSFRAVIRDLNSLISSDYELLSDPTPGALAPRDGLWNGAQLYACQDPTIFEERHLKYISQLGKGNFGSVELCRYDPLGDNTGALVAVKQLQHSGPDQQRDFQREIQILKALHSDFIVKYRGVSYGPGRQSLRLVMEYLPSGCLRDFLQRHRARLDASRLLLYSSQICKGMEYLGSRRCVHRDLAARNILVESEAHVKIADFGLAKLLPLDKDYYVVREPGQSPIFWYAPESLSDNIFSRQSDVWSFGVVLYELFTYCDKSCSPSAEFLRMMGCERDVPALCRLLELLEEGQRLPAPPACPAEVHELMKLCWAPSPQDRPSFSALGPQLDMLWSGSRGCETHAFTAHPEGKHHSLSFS
T1 sequence (Q16659 whole entry): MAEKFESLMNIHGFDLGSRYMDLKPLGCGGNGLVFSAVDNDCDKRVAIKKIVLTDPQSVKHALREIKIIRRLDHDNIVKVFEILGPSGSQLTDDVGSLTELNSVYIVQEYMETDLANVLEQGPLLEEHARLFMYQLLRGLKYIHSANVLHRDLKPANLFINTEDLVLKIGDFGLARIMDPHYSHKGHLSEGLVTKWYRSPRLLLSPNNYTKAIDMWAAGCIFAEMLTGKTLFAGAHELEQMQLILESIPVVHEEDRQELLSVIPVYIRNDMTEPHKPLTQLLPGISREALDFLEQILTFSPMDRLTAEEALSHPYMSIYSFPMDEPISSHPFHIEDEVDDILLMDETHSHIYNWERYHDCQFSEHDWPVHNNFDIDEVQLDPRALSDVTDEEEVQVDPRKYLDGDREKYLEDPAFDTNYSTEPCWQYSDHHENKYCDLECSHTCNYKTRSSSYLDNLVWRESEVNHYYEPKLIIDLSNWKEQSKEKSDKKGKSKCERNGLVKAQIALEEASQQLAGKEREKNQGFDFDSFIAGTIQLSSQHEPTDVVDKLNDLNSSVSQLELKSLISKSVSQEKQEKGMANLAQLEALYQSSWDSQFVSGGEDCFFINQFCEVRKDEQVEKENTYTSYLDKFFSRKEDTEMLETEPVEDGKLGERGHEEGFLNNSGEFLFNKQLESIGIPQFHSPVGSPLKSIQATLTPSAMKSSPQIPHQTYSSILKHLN
Sequence of HCK (P08631 whole entry): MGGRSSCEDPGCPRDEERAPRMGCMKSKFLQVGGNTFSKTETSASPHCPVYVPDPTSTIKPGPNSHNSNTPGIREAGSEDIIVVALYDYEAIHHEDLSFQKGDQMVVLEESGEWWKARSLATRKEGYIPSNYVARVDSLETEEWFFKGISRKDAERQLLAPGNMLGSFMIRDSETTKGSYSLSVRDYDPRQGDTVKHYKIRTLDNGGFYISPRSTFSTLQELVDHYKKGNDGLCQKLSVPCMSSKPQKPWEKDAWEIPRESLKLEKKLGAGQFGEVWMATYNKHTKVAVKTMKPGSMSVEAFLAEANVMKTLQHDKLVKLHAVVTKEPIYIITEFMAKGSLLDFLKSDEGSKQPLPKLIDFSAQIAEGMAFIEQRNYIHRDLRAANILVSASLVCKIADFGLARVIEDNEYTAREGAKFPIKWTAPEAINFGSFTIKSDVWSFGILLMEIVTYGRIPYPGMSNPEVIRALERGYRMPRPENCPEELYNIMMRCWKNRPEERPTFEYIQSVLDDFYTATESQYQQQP

COc1cc2c(cn1)N(C)C(=O)[C@@H](NC(=O)c1nc3n(n1)[C@H](c1ccccc1)CC3)CC2 [GNE684, (S)-N-((S)-7-methoxy-1-methyl-2-oxo-2,3,4,5-tetrahydro-1H-pyrido[3,4-b]azepin-3-yl)-5-phenyl-6,7-dihydro-5H-pyrrolo[1,2-b][1,2,4]triazole-2-carboxamide]
remaining binding at 10 µM (AAK1): 100% | remaining binding at 10 µM (ABL2): 100% | remaining binding at 10 µM (BRSK2): 89% | remaining binding at 10 µM (CLK2): 74% | remaining binding at 10 µM (CLK3): 97% | remaining binding at 10 µM (EPHA2): 97% | remaining binding at 10 µM (ERK3): 100% | remaining binding at 10 µM (HCK): 93% | remaining binding at 10 µM [1]: 97% | remaining binding at 10 µM (KIT(L576P)): 100% | remaining binding at 10 µM (LRRK2(G2019S)): 97% | remaining binding at 10 µM (MET(M1250T)): 100% | remaining binding at 10 µM (MET(Y1235D)): 82% | remaining binding at 10 µM (MLK2): 72% | remaining binding at 10 µM (NEK7): 97% | remaining binding at 10 µM (PKNB(M.tuberculosis)): 96% | remaining binding at 10 µM (PRKCH): 89% | remaining binding at 10 µM (PRKX): 99% | remaining binding at 10 µM (RET(M918T)): 89% | remaining binding at 10 µM (SGK2): 99% | remaining binding at 10 µM (SgK110): 67%
